Results: patent publication US20250243196A1, “CITRON KINASE INHIBITORS” (The Cleveland Clinic Foundation, priority 2021, published 2025)

Assays:
Assay type in all cases: biochemical
[1] = molecular target: PEK(h) (Homo sapiens (Human), UniProt Q9NZJ5); test: KinaseProfiler panel; set-up: dose or concentration left out as unconfirmed; details: activity remaining
[2] = molecular target: Ron(h) (Homo sapiens (Human), UniProt Q04912); test: KinaseProfiler panel; set-up: dose or concentration left out as unconfirmed; details: activity remaining
[3] = molecular target: Flt4(h) (Homo sapiens (Human), UniProt P35916); test: KinaseProfiler panel; set-up: dose or concentration left out as unconfirmed; details: activity remaining
[4] = molecular target: MEK2(h) (Homo sapiens (Human), UniProt P36507); test: KinaseProfiler panel; set-up: dose or concentration left out as unconfirmed; details: activity remaining
[5] = molecular target: CDK4/cyclinD3(h) (Homo sapiens (Human), UniProt P11802); test: KinaseProfiler panel; set-up: dose or concentration left out as unconfirmed; details: activity remaining
[6] = molecular target: CaMKIV(h) (Homo sapiens (Human), UniProt Q16566); test: KinaseProfiler panel; set-up: dose or concentration left out as unconfirmed; details: activity remaining
[7] = molecular target: mTOR(h) (Homo sapiens (Human), UniProt P42345); test: KinaseProfiler panel; set-up: dose or concentration left out as unconfirmed; details: activity remaining
[8] = molecular target: ROCK-2 (Homo sapiens (Human), UniProt O75116); test: KinaseProfiler radiometric assay (14-451KP); details: mean of at least two independent experiments
Excerpt: (§1) In another aspect, disclosed is a method of inhibiting citron kinase in a sample, comprising contacting the sample with a compound described herein (e.g., a compound of formula (I) or a pharmaceutically acceptable salt thereof), or a pharmaceutical composition described herein (e.g., a pharmaceutical composition comprising a compound of formula (I) or a pharmaceutically acceptable salt thereof), in an amount effective to inhibit citron kinase. In some embodiments, the step of contacting the sample with the compound comprises administering the compound to a subject (e.g., a subject) suffering from cancer. Methods of determining kinase inhibition are well known in the art. For example, kinase activity of an enzyme and the inhibitory capacity of a test compound can be determined by measuring enzyme specific phosphorylation of a substrate. Commercial assays and kits can be employed. For example, kinase inhibition can be determined using a radiometric binding assay, such as using KinaseProfiler™ technology (Eurofins Discovery). This assay method directly detects product formation without the use of modified substrates or coupling enzymes. Test compounds are incubated with kinase, substrate, required cofactors and radioisotope labeled ATP. Following incubation, unreacted radioactive ATP is removed by washing and incorporation of the radiolabeled phosphate into the kinase substrate is assayed to detect phosphoryltransferase activity, which is directly proportional to the amount of phosphorylated substrate. Inhibition of the kinase by a kinase inhibitor prevents phosphorylation of the substrate and thereby limits the incorporation of radiolabeled phosphate. Such an assay is compatible with a microwell assay format, allowing simultaneous determination of IC50 of multiple compounds.
(§2) The effect of various compounds on the inhibition of other kinases has also been determined. Table 2 reports measured IC50 values; value units are nanomolar inhibition.

[9] = molecular target: PKD2(h) (Homo sapiens (Human), UniProt Q9BZL6); test: KinaseProfiler panel; set-up: dose or concentration left out as unconfirmed; details: activity remaining
[10] = molecular target: DDR2(h) (Homo sapiens (Human), UniProt Q16832); test: KinaseProfiler panel; set-up: dose or concentration left out as unconfirmed; details: activity remaining
[11] = molecular target: TTBK2(h) (Homo sapiens (Human), UniProt Q6IQ55); test: KinaseProfiler panel; set-up: dose or concentration left out as unconfirmed; details: activity remaining
[12] = molecular target: Wee1(h) (Homo sapiens (Human), UniProt P30291); test: KinaseProfiler panel; set-up: dose or concentration left out as unconfirmed; details: activity remaining
[13] = molecular target: MAPKAP-K2(h) (Homo sapiens (Human), UniProt P49137); test: KinaseProfiler panel; set-up: dose or concentration left out as unconfirmed; details: activity remaining
[14] = molecular target: NDR2(h) (Homo sapiens (Human), UniProt Q9Y2H1); test: KinaseProfiler panel; set-up: dose or concentration left out as unconfirmed; details: activity remaining
[15] = molecular target: Rsk2(h) (Homo sapiens (Human), UniProt P51812); test: KinaseProfiler panel; set-up: dose or concentration left out as unconfirmed; details: activity remaining
[16] = molecular target: MAPK1(h) (Homo sapiens (Human), UniProt P27361); test: KinaseProfiler panel; set-up: dose or concentration left out as unconfirmed; details: activity remaining
[17] = molecular target: HIPK3(h) (Homo sapiens (Human), UniProt Q9H422); test: KinaseProfiler panel; set-up: dose or concentration left out as unconfirmed; details: activity remaining
[18] = molecular target: CaMKIIδ(h) (Homo sapiens (Human), UniProt Q13557); test: KinaseProfiler panel; set-up: dose or concentration left out as unconfirmed; details: activity remaining
[19] = molecular target: SGK3(h) (Homo sapiens (Human), UniProt Q96BR1); test: KinaseProfiler panel; set-up: dose or concentration left out as unconfirmed; details: activity remaining
[20] = molecular target: RIPK2(h) (Homo sapiens (Human), UniProt O43353); test: KinaseProfiler panel; set-up: dose or concentration left out as unconfirmed; details: activity remaining
[21] = molecular target: MLK4(h) (Homo sapiens (Human), UniProt Q5TCX8); test: KinaseProfiler panel; set-up: dose or concentration left out as unconfirmed; details: activity remaining
[22] = molecular target: MINK(h) (Homo sapiens (Human), UniProt Q8N4C8); test: KinaseProfiler panel; set-up: dose or concentration left out as unconfirmed; details: activity remaining
[23] = molecular target: LOK(h) (Homo sapiens (Human), UniProt O94804); test: KinaseProfiler panel; set-up: dose or concentration left out as unconfirmed; details: activity remaining
[24] = molecular target: KDR(h) (Homo sapiens (Human), UniProt P35968); test: KinaseProfiler panel; set-up: dose or concentration left out as unconfirmed; details: activity remaining
[25] = molecular target: PKAα (Homo sapiens (Human), UniProt P17612); test: KinaseProfiler radiometric assay (14-440KP); details: mean of at least two independent experiments
Excerpt: as §1, §2

[26] = molecular target: PI3 Kinase (p110b/p85a)(h) (Homo sapiens (Human), UniProt P42338); test: KinaseProfiler panel; set-up: dose or concentration left out as unconfirmed; details: activity remaining
Sequence of PI3 Kinase (p110b/p85a)(h) (P42338 whole entry): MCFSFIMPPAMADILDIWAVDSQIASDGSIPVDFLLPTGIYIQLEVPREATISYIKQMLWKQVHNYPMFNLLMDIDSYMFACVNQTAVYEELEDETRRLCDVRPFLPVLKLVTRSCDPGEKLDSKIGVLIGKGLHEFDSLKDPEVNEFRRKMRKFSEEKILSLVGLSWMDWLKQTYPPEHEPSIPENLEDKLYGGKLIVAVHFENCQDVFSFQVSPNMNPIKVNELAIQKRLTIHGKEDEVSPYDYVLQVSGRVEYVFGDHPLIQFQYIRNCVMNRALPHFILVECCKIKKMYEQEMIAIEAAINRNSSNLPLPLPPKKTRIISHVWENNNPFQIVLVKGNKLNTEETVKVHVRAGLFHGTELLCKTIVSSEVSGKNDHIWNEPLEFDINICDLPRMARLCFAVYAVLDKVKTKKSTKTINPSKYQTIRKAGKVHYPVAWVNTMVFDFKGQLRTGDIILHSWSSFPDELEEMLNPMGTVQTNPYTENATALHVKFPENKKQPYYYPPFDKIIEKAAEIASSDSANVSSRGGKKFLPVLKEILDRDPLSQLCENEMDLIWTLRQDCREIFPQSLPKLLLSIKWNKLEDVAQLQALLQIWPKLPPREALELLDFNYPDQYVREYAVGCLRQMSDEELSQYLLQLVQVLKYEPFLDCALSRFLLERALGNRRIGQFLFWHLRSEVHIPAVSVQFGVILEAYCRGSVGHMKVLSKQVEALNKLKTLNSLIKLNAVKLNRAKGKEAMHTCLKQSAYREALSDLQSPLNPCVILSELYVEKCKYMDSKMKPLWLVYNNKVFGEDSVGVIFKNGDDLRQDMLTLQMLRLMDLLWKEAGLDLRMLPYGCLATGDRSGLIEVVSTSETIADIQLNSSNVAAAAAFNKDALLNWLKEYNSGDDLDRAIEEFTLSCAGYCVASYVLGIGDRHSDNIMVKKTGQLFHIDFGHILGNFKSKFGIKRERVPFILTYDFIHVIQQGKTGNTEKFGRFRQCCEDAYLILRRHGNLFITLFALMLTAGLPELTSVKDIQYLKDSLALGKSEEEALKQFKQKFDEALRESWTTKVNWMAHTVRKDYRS
Sequence of PI3 Kinase (p110b/p85a)(h) (P27986 whole entry partner): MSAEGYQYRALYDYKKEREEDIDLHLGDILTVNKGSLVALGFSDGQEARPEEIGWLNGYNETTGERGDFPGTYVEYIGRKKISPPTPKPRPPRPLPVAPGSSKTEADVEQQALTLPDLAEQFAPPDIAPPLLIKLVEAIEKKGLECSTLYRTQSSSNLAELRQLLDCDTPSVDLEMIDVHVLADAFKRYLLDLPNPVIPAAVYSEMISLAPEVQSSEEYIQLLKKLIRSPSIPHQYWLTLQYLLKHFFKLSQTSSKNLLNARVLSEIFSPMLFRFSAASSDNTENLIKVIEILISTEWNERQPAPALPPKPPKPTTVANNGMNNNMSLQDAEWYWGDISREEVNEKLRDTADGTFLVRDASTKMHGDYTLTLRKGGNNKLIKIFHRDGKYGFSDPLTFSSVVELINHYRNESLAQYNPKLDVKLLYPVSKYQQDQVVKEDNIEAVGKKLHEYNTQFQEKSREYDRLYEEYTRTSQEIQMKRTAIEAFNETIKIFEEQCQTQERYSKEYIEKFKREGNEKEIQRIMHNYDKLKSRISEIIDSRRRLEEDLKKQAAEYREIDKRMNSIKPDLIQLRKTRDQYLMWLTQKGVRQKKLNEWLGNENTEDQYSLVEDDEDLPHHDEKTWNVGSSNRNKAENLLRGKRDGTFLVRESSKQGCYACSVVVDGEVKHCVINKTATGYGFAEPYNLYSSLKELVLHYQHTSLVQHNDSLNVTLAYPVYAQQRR

Sequence of RIPK2(h) (O43353 whole entry): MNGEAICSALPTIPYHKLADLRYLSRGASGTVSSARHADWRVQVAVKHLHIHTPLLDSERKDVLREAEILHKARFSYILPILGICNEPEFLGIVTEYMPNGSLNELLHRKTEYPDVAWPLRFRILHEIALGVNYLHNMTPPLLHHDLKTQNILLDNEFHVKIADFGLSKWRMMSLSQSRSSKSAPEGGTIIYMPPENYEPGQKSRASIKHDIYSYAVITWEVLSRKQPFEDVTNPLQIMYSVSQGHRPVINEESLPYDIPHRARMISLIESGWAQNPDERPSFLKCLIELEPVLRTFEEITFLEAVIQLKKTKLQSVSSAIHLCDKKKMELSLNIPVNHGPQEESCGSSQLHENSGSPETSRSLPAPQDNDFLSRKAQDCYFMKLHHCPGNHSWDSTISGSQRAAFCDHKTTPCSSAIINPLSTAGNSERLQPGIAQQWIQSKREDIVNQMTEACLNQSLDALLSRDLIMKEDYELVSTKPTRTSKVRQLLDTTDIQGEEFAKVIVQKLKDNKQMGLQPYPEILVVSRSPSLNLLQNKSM
Sequence of CaMKIIδ(h) (Q13557 whole entry): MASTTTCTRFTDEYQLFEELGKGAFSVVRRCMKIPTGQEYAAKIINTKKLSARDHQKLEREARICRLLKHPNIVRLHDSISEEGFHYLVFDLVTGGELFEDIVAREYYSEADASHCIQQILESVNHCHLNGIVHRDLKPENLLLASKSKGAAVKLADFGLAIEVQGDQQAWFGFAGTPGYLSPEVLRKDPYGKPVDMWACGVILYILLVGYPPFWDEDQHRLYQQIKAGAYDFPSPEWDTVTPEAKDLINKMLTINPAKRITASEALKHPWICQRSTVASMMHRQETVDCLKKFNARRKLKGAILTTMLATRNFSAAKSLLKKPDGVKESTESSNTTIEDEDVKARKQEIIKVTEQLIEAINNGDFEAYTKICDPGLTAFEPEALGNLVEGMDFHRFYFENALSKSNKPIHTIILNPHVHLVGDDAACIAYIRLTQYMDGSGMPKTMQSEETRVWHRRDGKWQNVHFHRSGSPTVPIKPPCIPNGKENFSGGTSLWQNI
Sequence of NDR2(h) (Q9Y2H1 whole entry): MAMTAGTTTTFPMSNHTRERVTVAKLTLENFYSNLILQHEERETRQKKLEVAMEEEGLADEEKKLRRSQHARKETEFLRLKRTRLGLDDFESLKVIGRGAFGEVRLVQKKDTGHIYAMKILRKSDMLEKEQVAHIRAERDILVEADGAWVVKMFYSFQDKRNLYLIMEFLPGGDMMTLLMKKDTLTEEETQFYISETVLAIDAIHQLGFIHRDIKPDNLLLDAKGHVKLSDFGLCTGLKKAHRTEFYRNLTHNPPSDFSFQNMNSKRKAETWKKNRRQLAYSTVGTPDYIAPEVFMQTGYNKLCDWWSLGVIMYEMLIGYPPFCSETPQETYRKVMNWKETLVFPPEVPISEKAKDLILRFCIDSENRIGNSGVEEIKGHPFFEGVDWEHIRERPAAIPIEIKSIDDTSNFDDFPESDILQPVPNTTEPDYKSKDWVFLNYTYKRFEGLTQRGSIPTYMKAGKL
Sequence of TTBK2(h) (Q6IQ55 whole entry): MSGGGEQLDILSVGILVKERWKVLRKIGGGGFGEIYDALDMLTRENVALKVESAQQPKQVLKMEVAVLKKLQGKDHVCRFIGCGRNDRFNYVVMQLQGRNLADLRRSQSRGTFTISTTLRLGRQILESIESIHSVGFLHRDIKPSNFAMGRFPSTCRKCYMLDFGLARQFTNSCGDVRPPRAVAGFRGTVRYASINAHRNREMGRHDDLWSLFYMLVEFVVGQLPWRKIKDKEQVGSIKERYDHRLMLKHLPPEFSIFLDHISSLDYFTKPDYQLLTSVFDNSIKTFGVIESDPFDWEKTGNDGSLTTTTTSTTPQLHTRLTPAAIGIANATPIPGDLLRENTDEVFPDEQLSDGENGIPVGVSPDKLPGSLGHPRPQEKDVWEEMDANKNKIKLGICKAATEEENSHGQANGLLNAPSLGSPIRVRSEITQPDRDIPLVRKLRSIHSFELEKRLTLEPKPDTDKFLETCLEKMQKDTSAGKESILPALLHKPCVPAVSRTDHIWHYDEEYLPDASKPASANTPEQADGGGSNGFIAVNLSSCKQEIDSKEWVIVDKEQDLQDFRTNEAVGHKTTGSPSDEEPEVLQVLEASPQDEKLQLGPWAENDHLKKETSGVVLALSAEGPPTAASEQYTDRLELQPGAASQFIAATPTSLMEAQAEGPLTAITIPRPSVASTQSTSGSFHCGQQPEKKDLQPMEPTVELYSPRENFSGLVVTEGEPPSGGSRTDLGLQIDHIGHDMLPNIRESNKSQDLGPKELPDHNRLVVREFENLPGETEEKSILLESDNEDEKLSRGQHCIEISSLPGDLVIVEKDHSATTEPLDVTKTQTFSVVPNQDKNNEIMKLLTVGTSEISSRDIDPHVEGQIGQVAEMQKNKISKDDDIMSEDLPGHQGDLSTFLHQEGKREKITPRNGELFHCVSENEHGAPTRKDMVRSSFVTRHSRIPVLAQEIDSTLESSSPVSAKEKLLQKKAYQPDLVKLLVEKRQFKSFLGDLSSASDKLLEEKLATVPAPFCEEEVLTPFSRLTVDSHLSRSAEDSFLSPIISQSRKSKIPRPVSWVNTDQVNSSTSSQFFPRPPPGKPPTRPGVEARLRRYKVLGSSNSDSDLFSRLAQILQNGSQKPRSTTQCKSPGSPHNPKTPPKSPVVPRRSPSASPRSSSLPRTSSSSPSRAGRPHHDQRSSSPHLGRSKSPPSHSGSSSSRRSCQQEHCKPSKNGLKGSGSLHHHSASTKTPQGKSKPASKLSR
Sequence of CaMKIV(h) (Q16566 whole entry): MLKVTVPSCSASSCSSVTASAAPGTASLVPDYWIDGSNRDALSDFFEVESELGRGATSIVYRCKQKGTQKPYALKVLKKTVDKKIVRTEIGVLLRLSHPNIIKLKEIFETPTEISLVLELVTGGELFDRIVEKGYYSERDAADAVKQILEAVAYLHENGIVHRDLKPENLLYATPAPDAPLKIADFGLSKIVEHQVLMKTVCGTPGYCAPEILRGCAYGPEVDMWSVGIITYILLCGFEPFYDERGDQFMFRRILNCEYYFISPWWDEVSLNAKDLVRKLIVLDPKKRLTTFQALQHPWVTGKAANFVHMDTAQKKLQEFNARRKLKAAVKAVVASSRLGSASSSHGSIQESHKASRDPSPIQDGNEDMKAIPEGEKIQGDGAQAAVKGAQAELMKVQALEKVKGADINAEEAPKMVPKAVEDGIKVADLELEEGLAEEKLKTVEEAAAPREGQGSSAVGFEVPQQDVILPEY

`Cc1cc2c(-c3ccc(NC(=O)[C@H](N)CC(C)(C)C)cc3C)ccnc2[nH]1` [Compound F-90, (2R)-2-Amino-4,4-dimethyl-N-[3-methyl-4-(2-methyl-1H-pyrrolo[2,3-b]pyridin-4-yl)phenyl]pentanamide] was tested, and the “% Activity” value [1] was 91%, the “% Activity” value [2] was 111% and the “% Activity” value [3] was 96%. For the same compound, the “% Activity” value [4] was 92%, the “% Activity” value [5] was 74% and the “% Activity” value [6] was 99%. For the same compound, the “% Activity” value [7] was 95%, the IC50 [8] was > 3 µM and the “% Activity” value [9] was 95%. For the same compound, the “% Activity” value [10] was 85%, the “% Activity” value [11] was 94% and the “% Activity” value [12] was 94%. For the same compound, the “% Activity” value [13] was 72%, the “% Activity” value [14] was 107% and the “% Activity” value [15] was 88%. For the same compound, the “% Activity” value [16] was 95%, the “% Activity” value [17] was 85% and the “% Activity” value [18] was 96%. The “% Activity” value [19] was 102%, the “% Activity” value [20] was 97% and the “% Activity” value [21] was 112%. For the same compound, the “% Activity” value [22] was 89%, the “% Activity” value [23] was 96% and the “% Activity” value [24] was 78%. For the same compound, the IC50 [25] was > 3 µM and the “% Activity” value [26] was 102%.
